# In US20260374766A1, “METHODS FOR TREATING CANCER” (Antares Therapeutics, Inc., priority 2022, published 2026):
# Like-named read-outs stand apart in the source and are kept apart here.
# Columns and labels:
# [1] = target: T1, p53 Y220C mutant protein (amino acid residues 94-293) (Homo sapiens, UniProt P04637, Y220C); test: Surface Plasmon Resonance (SPR) assay, Kd_kinetic; format: binding; details: SPR, p53 Y220C, read-out: SPR P53 Y220C KD kinetic
# T1 construct: p53 Y220C mutant protein (amino acid residues 94-293)
# Procedure, shortened: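 Temperature held at 16 or 20 °C during Biacore 8K runs. Buffer: 50 mM Tris, pH 7.5, 100 mM NaCl, 1 mM DTT, 0.01% Brij35, 0.05% Tween-20, 1% DMSO.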
# [2] = target: T1, p53 Y220C mutant protein (amino acid residues 94-293); test: Thermal Shift Assay (TSA), dTM; format: binding; details: for ΔTm at 10 µM: 10 uM compound; for ΔTm at 100 µM: 100 uM compound
# Procedure, shortened: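 Recombinant p53 Y220C core (residues 94-293) at 5 μM was incubated with 10 μM or 100 μM compound for 3 hours at 20 °C in 20 mM HEPES pH7.4, 100 mM NaCl, 0.01% Pluronic F-127, 1% DMSO with 400-fold diluted Sypro Orange. Melting was followed from 30 °C to 50 °C at 0.03 °C/second, and TM came from a Boltzmann two-state fit.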
# p53 Y220C = p53 Y220C (Homo sapiens, UniProt P04637, Y220C); test: Luciferase Reporter Assay (Luc), p53 response element, NClH1299 cells with inducible p53 Y220C; format: cell-based; details: luciferase reporter, NClH1299 inducible p53 Y220C, 6 hour; for AC50: read-out: Luc P53 Y220C AC50
# Procedure, shortened: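 Luminescence readout (One-Glo, 5 min shaking at RT, read at once) after 6 h compound exposure; cells pre-induced 24 h with 0.5 ug/mL doxycycline, 5,000/well.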
# NUGC3 p53 Y220C = test: Cell Proliferation Assay (CellTiter-Glo, CTG), NUGC3 p53 Y220C; format: cell-based; details: Homo sapiens, NUGC-3, 120 h, 5 days, CellTiter-Glo
# Procedure, shortened: (§1)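 NClH1299 lines stably transduced with Tet-inducible p53 Y220C or R273H, plus NUGC3, were treated with compound for 5 days at 250-500 cells/well. IC50 derived from CellTiter-Glo luminescent signal after 10 min room-temperature incubation.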
# H1299 p53 Y220C = test: Cell Proliferation Assay (CellTiter-Glo, CTG), H1299 p53 Y220C (NClH1299-inducible p53 Y220C); format: cell-based; details: Homo sapiens, NCI-H1299, 120 h, 5 days, CellTiter-Glo
# Procedure, shortened: as §1
# H1299 p53 R273H = test: Cell Proliferation Assay (CellTiter-Glo, CTG), H1299 p53 R273H (NClH1299-inducible p53 R273H); format: cell-based; details: Homo sapiens, NCI-H1299, 120 h, 5 days, CellTiter-Glo
# Procedure, shortened: as §1
# [3] = p53 Y220C, read-out: TSA P53 Y220C dTM
# [4] = NClH1299-inducible p53 Y220C cells
# [5] = NClH1299-inducible p53 R273H cells
# [6] = thermal shift, read-out: TSA P53 Y220C dTM (10 uM)
# [7] = thermal shift, read-out: TSA P53 Y220C dTM (100 uM)
# [8] = 10 uM tool compound as positive control
Structure (SMILES),Kd [1] [nM],"ΔTm at 10 µM [2, 3] [°C]",AC50 (p53 Y220C; AC50) [nM],Emax (p53 Y220C; Emax) [%],IC50 (NUGC3 p53 Y220C; NUGC3 cells) [nM],IC50 (H1299 p53 Y220C; [4]) [nM],IC50 (H1299 p53 R273H; [5]) [nM],Kd ([1]; kinetic KD) [nM],"ΔTm at 10 µM [2, 6] [°C]","ΔTm at 100 µM [2, 7] [°C]",Emax (p53 Y220C; [8]) [%],AC50 (p53 Y220C) [nM],IC50 (NUGC3 p53 Y220C; NUGC3 p53 Y220C) [nM],IC50 (H1299 p53 Y220C; H1299 p53 Y220C) [nM],IC50 (H1299 p53 R273H; H1299 p53 R273H) [nM],"ΔTm at 100 µM [2, 3] [°C]"
CNC(=O)c1ccc(OC)c(NCC#Cc2nn3c(N[C@H]4C[C@@H]5CC[C@@H](N5)[C@H]4F)cccc3c2SC(F)(F)F)c1 [Example 287],< 10,≥ 10,< 750,80 to 90,< 750,< 750,< 5000,,,,,,,,,
"CNC(=O)c1ccc(NCC#Cc2nc3c(N[C@@H]4CCN(C)C[C@@H]4F)nccn3c2SC(F)(F)F)c(OC)c1 [Example 206, 4-{[3-(8-{[(3S,4R)-3-fluoro-1-methylpiperidin-4-yl]amino}-3-[(trifluoromethyl)sulfanyl]imidazo[1,2-a]pyrazin-2-yl)prop-2-yn-1-yl]amino}-3-methoxy-N-methylbenzamide]",,,,,,,,< 10,≥ 10,≥ 10,> 90,< 750,< 750,< 750,≥ 10000,
CNC(=O)c1ccc(OC)c(NCC#Cc2nc3c(N[C@@H]4CCNC[C@@H]4F)cccn3c2SC(F)F)n1 [Example 193],,,,,,,,10 to 100,≥ 10,≥ 10,70 to 80,< 750,< 750,< 750,8000 to 10000,
CNC(=O)c1ccc(NCC#Cc2nc3c(N[C@@H]4CN(C)CC[C@@H]4F)cccn3c2SC(F)(F)F)c(OC)c1 [Example 146],,,,,,,,< 10,≥ 10,≥ 10,70 to 80,< 750,< 750,< 750,5000 to 8000,
CCNC(=O)c1ccc(NCC#Cc2cc3c(N[C@@H]4CCN(C)C[C@@H]4F)nccn3c2SC(F)(F)F)c(OC)c1 [Example 306],< 10,≥ 10,< 750,> 90,< 750,< 750,5000 to 8000,,,,,,,,,
"COc1cc(S(=O)(=O)C2CC2)ccc1NCC#Cc1nc2c(N[C@@H]3CCN(C)C[C@@H]3F)cccn2c1SC(F)(F)F [Example 81, (3S,4R)—N-[2-(3-{[4-(cyclopropanesulfonyl)-2-methoxyphenyl]amino}prop-1-yn-1-yl)-3-[(trifluoromethyl)sulfanyl]imidazo[1,2-a]pyridin-8-yl]-3-fluoro-1-methylpiperidin-4-amine]",,,,,,,,< 10,,≥ 10,80 to 90,< 750,< 750,< 750,5000 to 8000,
CNC(=O)c1cnc(OC)c(NCC#Cc2cc3c(N[C@@H]4CCN(C)C[C@@H]4F)nccn3c2SC(F)(F)F)c1 [Example 255],< 10,≥ 10,< 750,> 90,< 750,< 750,8000 to 10000,,,,,,,,,≥ 10
CNC(=O)c1ccc(OC)c(NCC#Cc2nn3c(N[C@@H]4CCNC[C@@H]4F)cccc3c2SC(F)(F)F)c1 [Example 236],< 10,≥ 10,< 750,80 to 90,< 750,< 750,5000 to 8000,,,,,,,,,≥ 10
COc1cc(S(C)(=O)=O)ccc1NCC#Cc1cc2c(N[C@@H]3CCN(C)C[C@@H]3F)cccn2c1SC(F)(F)F [Example 341],< 10,≥ 10,< 750,> 90,< 750,< 750,5000 to 8000,,,,,,,,,
CNC(=O)c1ccc(NCC#Cc2cc3c(N[C@@H]4CCNC[C@@H]4F)cccn3c2SC(F)(F)F)c(OC)c1 [Example 354],< 10,≥ 10,< 750,> 90,< 750,< 750,5000 to 8000,,,,,,,,,
CNC(=O)c1ccc(NCC#Cc2nc3c(N[C@@H]4CCn5cncc5C4)cccn3c2SC(F)(F)F)c(OC)c1 [Example 176],,,,,,,,10 to 100,5 to 10,≥ 10,70 to 80,750 to 1500,1500 to 3000,750 to 1500,5000 to 8000,
